In publication PMC5034817 (Journal of Neurochemistry, 2015):
Several values for one entry are separate records, joined by “and”; a condition that tells them apart may be missing. Equal values may be shown once. Entries after “also recorded” stand apart in the source; their conditions may differ.

B2: His6RGS4 (recombinant regulator of G protein signaling 4) (natural protein, UniProt P49799 1-205, looked up)
chain: MCKGLAGLPASCLRSAKDMKHRLGFLLQKSDSCEHSSSHSKKDKVVTCQRVSQEEVKKWAESLENLINHECGLAAFKAFLKSEYSEENIDFWISCEEYKKIKSPSKLSPKAKKIYNEFISVQATKEVNLDSCTREETSRNMLEPTITCFDEAQKKIFNLMEKDSYRRFLKSRFYLDLTNPSSCGAEKQKGAKSSADCTSLVPQCA

Assays:
[1] = tested on: RGS4 mRNA levels in the locus coeruleus; conditions: 6 days of chronic morphine administration; ref Gold et al. 2003; cited from earlier work
[2] = target: rat mu opioid receptor (MOR)/G protein complex (Rattus norvegicus, UniProt P33535+P59215); test: Co-immunoprecipitation of Goα and RGS4 with solubilized MOR; assay type: biochemical; conditions: for amount of RGS4 co-immunoprecipitated with MOR: 1 μM DAMGO, 0.3 μM RGS4
rat mu opioid receptor (MOR)/G protein complex, sequence (P33535 whole entry, one chain of several): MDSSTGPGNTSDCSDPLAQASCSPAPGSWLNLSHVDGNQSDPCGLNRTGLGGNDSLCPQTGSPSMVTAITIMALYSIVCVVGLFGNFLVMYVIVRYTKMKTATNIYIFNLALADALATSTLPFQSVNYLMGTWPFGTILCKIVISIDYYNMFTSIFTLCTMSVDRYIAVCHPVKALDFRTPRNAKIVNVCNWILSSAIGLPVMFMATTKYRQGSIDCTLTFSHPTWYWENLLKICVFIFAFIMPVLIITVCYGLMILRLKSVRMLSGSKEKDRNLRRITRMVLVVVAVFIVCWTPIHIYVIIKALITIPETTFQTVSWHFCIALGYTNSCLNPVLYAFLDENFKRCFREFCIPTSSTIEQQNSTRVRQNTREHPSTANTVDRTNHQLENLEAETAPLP

Goα = Goα (Rattus norvegicus, UniProt P59215); test: His6RGS4/Ni2+-NTA agarose pull-down of Goα from solubilized rat brain membranes; assay type: biochemical; conditions: for effect on association of Goα with His6RGS4: 100 μM GDP or 10 μM GTP alone
mu opioid receptor = mu opioid receptor (Homo sapiens, UniProt P35372); test: biochemical
mu opioid receptor, sequence (P35372 whole entry): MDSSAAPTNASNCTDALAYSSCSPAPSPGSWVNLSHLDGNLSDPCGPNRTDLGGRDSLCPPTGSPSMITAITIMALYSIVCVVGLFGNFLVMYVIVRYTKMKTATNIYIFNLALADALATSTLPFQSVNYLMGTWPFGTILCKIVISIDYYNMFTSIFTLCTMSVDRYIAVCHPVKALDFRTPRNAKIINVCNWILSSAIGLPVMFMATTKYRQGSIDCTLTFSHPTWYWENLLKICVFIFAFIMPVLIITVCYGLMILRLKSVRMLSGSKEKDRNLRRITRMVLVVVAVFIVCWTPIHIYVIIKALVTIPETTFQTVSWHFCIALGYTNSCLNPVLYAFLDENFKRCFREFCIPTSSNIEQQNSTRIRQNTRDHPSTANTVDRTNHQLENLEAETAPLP

MOR = MOR (Homo sapiens, UniProt P35372); assay type: biochemical; conditions: presence of 1 μM RGS4
MOR, sequence (P35372 whole entry): as above

MOR/G protein complex = MOR/G protein complex (Rattus norvegicus, UniProt P33535); test: Co-immunoprecipitation of Goα with MOR using anti-MOR349-398; assay type: biochemical; conditions: 1 µM DAMGO; IP with anti-MOR349-398; Figure S2c
MOR/G protein complex, sequence (P33535 whole entry, one chain of several): as the sequence (P33535 whole entry, one chain of several) above

[3] = target: B2; test: pull-down
[4] = target: mu opioid receptor (MOR), endogenous rat brain (rat, UniProt P33535 1-398); test: co-IP
mu opioid receptor (MOR), endogenous rat brain, sequence (P33535 whole entry): as the sequence (P33535 whole entry, one chain of several) above

Go/Gi-type G proteins = assay type: biochemical, human; conditions: RGS4 added

CN1CC[C@]23c4c5ccc(O)c4O[C@H]2[C@@H](O)C=C[C@H]3[C@H]1C5 [morphine]
RGS4 mRNA levels in the locus coeruleus [1]: doubled

C[C@@H](NC(=O)[C@@H](N)Cc1ccc(O)cc1)C(=O)NCC(=O)N(C)[C@@H](Cc1ccccc1)C(=O)NCCO [DAMGO, [D‐Ala^2, N‐Me‐Phe^4, Gly^5‐ol] enkephalin]
increase in RGS4 co-immunoprecipitating with MOR ([2]; DAMGO during immunoprecipitation vs no addition): 50% and 53% | effect on binding of Goα to RGS4 (Goα; 1 μM DAMGO alone, without guanine nucleotide): did not affect | Goα molecules whose affinity for GDP is decreased by MOR activation (Goα; DAMGO with 100 μM GDP and 0.3 μM GTPγS): 40–50% | inhibition of forskolin-stimulated adenylyl cyclase activity (mu opioid receptor): 21.8% ± 2.27 | maximal inhibition, adenylyl cyclase activity reduced to (mu opioid receptor): 3.28 pmoles cAMP formed in 10 min and 3.92 pmoles cAMP formed in 10 min | inhibition at 1 µM (mu opioid receptor; read-out: inhibition of adenylyl cyclase activity): 60.4 ± 2.97% | maximal amount of [35S]GTPγS bound (Bmax) (MOR): 1319 ± 82 dpm | increase in Goα co-immunoprecipitating with MOR (MOR/G protein complex): ~2 fold

Nc1nc2c(ncn2[C@@H]2O[C@H](COP(=O)(O)OP(=O)(O)O)[C@@H](O)[C@H]2O)c(=O)[nH]1 [GDP]
effect on association of Goα with His6RGS4 (Goα): failed to affect; also recorded: Neither 100 μM GDP nor 10 μM GTP affected; also recorded: neither GTP nor GDP had an effect | effect on GTPγS-enhanced Goα binding to RGS4 (Goα; 100 μM GDP with 0.3 μM GTPγS): blocked this effect; also recorded: prevented; also recorded: return to the control level

Nc1nc2c(ncn2[C@@H]2O[C@H](COP(=O)(O)OP(=O)(O)OP(=O)(O)O)[C@@H](O)[C@H]2O)c(=O)[nH]1 [GTP]
effect on amount of Goα associated with MOR ([2]; 10 μM GTP added to DAMGO vs DAMGO alone): did not alter | additional increase in RGS4 co-immunoprecipitating with MOR ([2]; 10 μM GTP with 1 μM DAMGO vs DAMGO alone): 72% and 71.6% | effect on association of Goα with His6RGS4 (Goα): failed to affect; also recorded: Neither 100 μM GDP nor 10 μM GTP affected; also recorded: neither GTP nor GDP had an effect

B1: Goα, endogenous rat brain (natural protein, rat (endogenous in rat brain), UniProt P59215 1-354, looked up)
chain: MGCTLSAEERAALERSKAIEKNLKEDGISAAKDVKLLLLGAGESGKSTIVKQMKIIHEDGFSGEDVKQYKPVVYSNTIQSLAAIVRAMDTLGVEYGDKERKADSKMVCDVVSRMEDTEPFSAELLSAMMRLWGDSGIQECFNRSREYQLNDSAKYYLDSLDRIGAADYQPTEQDILRTRVKTTGIVETHFTFKNLHFRLFDVGGQRSERKKWIHCFEDVTAIIFCVALSGYDQVLHEDETTNRMHESLMLFDSICNNKFFIDTSIILFLNKKDLFGEKIKKSPLTICFPEYPGSNTYEDAAAYIQTQFESKNRSPNKEIYCHMTCATDTNNIQVVFDAVTDIIIANNLRGCGLY
fold increase of Goα bound to His6RGS4 with 0.3 uM GTPγS against control [3]: ~3 fold

B2
stoichiometry N [4]: ~1

B3: RGS4: recombinant regulator of G protein signaling 4, His6-tagged, expressed in JM109 E. coli (protein)
chain: MCKGLAGLPASCLRSAKDMKHRLGFLLQKSDSCEHSSSHSKKDKVVTCQRVSQEEVKKWAESLENLINHECGLAAFKAFLKSEYSEENIDFWISCEEYKKIKSPSKLSPKAKKIYNEFISVQATKEVNLDSCTREETSRNMLEPTITCFDEAQKKIFNLMEKDSYRRFLKSRFYLDLTNPSSCGAEKQKGAKSSADCTSLVPQCA
modifications: left off: His6, end not stated, kept
amount of RGS4 co-immunoprecipitated with MOR ([2]; absence of GTPγS): 9 ± 1.1 fmol | amount of RGS4 co-immunoprecipitated with MOR ([2]; presence of 1 μM GTPγS): 28 fmol and 28.4 ± 5.4 fmol | ratio of MOR to RGS4 in the immunoprecipitate ([2]; presence of GTPγS): 1–1 | effect on GTPγS-mediated inhibition of adenylyl cyclase activity (Go/Gi-type G proteins): failed to attenuate; also recorded: failed to affect; also recorded: had no effect
